Measurements taken from patent publication US9920030B2 (priority 2006, dated 2018).
Read-outs that look alike come from different tables or passages of the source.

Tests used:
[1] = system: Phytophthora infestans (the causal agent of tomato late blight); experiment: whole plant or invertebrate; assay type: in vivo
[2] = system: Plasmopara vilicola (the causal agent of grape downy mildew); experiment: Test A: grape downy mildew, test suspension sprayed on grape seedlings after inoculation, visual disease rating; assay type: in vivo
In short: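 Compounds dissolved in acetone (3% of final volume), suspended in 50/50 acetone/water with 250 ppm Trem 014; 200 ppm to run-off equals 500 g/ha. Seedlings inoculated, held saturated at 20 °C 24 h, then sprayed; 5 days at 20 °C, 24 h saturated, then visual rating, 0–100% control versus untreated.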

[3] = system: Phytophthora infestans (the causal agent of tomato late blight); experiment: whole plant or invertebrate; assay type: in vivo; remark: listed apart in the source
[4] = compounds without asterisk (application rate not given), 100 = 100% disease control, 0 = no control relative to the controls

Row | SMILES | Percent Disease Control, Test C ([1]; * tested at 40 ppm) | Percent Disease Control, Test A ([2]; * tested at 40 ppm) | Percent Disease Control, Test B ([3]; * tested at 40 ppm) | further results
1 | Cc1cc(C(F)(F)F)nn1CC(=O)N1CCC(c2nc(C3=NOC(C)(c4ccccc4)C3)cs2)CC1 (stereo not drawn) [Compound 15, 1-[4-[4-(4,5-dihydro-5-methyl-5-phenyl-3-isoxazolyl)-2-thiazolyl]-1-piperidinyl]-2-[5-methyl-3-(trifluoromethyl)-1H-pyrazol-1-yl]ethanone] | – | – | – | melting point: 97 to 100 °C
2 | Cc1cc(C(F)(F)F)nn1CC(=O)N1CCC(c2nc(C3=NOC4c5ccccc5CCC34)cs2)CC1 (stereo not drawn) [Compound 16, 2-[5-methyl-3-(trifluoromethyl)-1H-pyrazol-1-yl]-1-[4-[4-(3a,4,5,9b-tetrahydronaphth[2,1-d]isoxazol-3-yl)-2-thiazolyl]-1-piperidinyl]ethanone] | – | – | – | melting point: 162 to 165 °C
3 | COc1ccc(C2CC(c3csc(C4CCN(C(=O)Cn5nc(C(F)(F)F)cc5C)CC4)n3)=NO2)cc1 (stereo not drawn) [Compound 18, 1-[4-[4-[4,5-dihydro-5-(4-methoxyphenyl)-3-isoxazolyl]-2-thiazolyl]-1-piperidinyl]-2-[5-methyl-3-(trifluoromethyl)-1H-pyrazol-1-yl]ethanone] | – | – | – | pest or weed control at 40 ppm ([1]; Phytophthora infestans, 96 h, read-out: Percent Disease Control, Test C): 99%; pest or weed control at 40 ppm ([2]; Plasmopara, 144 h, * tested at 40 ppm, read-out: Percent Disease Control, Test A): 100%; pest or weed control at 40 ppm ([3]; Phytophthora infestans, 144 h, read-out: Percent Disease Control, Test B): 100%; melting point: 119 to 124 °C
4 | CCOC(=O)c1cc(C)nn1CC(=O)N1CCC(c2nc(C3=NOC(c4ccccc4)C3)cs2)CC1 (stereo not drawn) [Compound 238] | 100% | 100% | 100% | –
5 | CCOc1cc(C(F)(F)F)nn1CC(=O)N1CCC(c2nc(C3=NOC(c4ccccc4)C3)cs2)CC1 (stereo not drawn) [Compound 241] | 100% | 100% | 100% | –
6 | Cc1cc(C(F)(F)F)nn1CC(=O)N1CCC(c2nc(N3CC(c4ccccc4)OC3=O)cs2)CC1 (stereo not drawn) [Compound 242] | 85% | 99% | 100% | –
7 | Cc1cc(C(F)(F)F)nn1CC(=O)N1CCC(c2nc(C3=NOC(N4C(=O)CCCC4=O)C3)cs2)CC1 (stereo not drawn) [Compound 243] | – | – | – | Percent Disease Control, Test C ([1]; ** tested at l0 ppm): 100%; Percent Disease Control, Test A ([2]; ** tested at l0 ppm): 99%; Percent Disease Control, Test B ([3]; ** tested at l0 ppm): 100%
8 | Cc1cc(C(F)(F)F)nn1CC(=O)N1CCC(c2nc(C3=NOC(n4oc(=O)n(C(C)C)c4=O)C3)cs2)CC1 (stereo not drawn) [Compound 244] | 99% | 98% | 100% | –
9 | Cc1cc(C(F)(F)F)nn1CC(=O)N1CCC(c2nc(-c3ccc(F)cc3)cs2)CC1 [Compound 245] | 0% | 99% | 74% | –
10 | Cc1cc(C(F)(F)F)nn1CC(=O)N1CCC(c2nc(-c3ccc(C(C)(C)C)cc3)cs2)CC1 [Compound 246] | 40% | 99% | 79% | –
11 | Cc1cc(C(F)(F)F)nn1CC(=O)N1CCC(c2nc(-c3ccc(C#N)cc3)cs2)CC1 [Compound 247] | 88% | 99% | 100% | –
12 | Cc1cc(C(F)(F)F)nn1CC(=O)N1CCC(c2nc(-c3ccc([N+](=O)[O-])cc3)cs2)CC1 [Compound 248] | 26% | 90% | 73% | –
13 | Cc1cc(C(F)(F)F)nn1CC(=O)N1CCC(c2nc(-c3ccc(Br)cc3)cs2)CC1 [Compound 249] | 0% | 99% | 64% | –
14 | Cc1cc(C(F)(F)F)nn1CC(=O)N1CCC(c2nc(-c3ccc(I)cc3)cs2)CC1 [Compound 250] | 0% | 86% | 58% | –
15 | Cc1cc(C(F)(F)F)nn1CC(=O)N1CCC(c2nc(C3=NOC4(CCCc5cc(C#N)ccc54)C3)cs2)CC1 (stereo not drawn) [Compound 251] | 99% | 99% | 100% | –
16 | Cc1cc(C(F)(F)F)nn1CC(=O)N1CCC(c2nc(C3=NOC4(CC(=O)N(c5ccccc5)C4=O)C3)cs2)CC1 (stereo not drawn) [Compound 252] | 97% | 88% | 91% | –

Row | SMILES | Percent Disease Control, Test C ([1]; * tested at 40 ppm) | Percent Disease Control, Test A ([2]; * tested at 40 ppm) | Percent Disease Control, Test B ([3]; * tested at 40 ppm) | further results
17 | C[C@]1(c2ccccc2)CC(c2csc(C3CCN(C(=O)Cn4nc(C(F)(F)F)cc4C(F)(F)F)CC3)n2)=NO1 [Compound 260, 2-[3,5-bis(triflyoromethyl)-1H-pyrazol-1-yl]-1-[4-[4-[(5R)-4,5-dihydro-5-methyl-5-phenyl-3-isoxazolyl]-2-thiazolyl]-1-piperidinyl]ethanone] | – | – | – | Percent Disease Control, Test C ([1]; ** tested at l0 ppm): 96%; Percent Disease Control, Test A ([2]; ** tested at l0 ppm): 100%; Percent Disease Control, Test B ([3]; ** tested at l0 ppm): 100%
18 | Cc1cc(C(F)(F)F)nn1CC(=O)N1CCC(c2nc(C3=NOC(Cc4ccccc4S(N)(=O)=O)C3)cs2)CC1 (stereo not drawn) [Compound 262] | 91% | 79% | 100% | –
19 | CC(=O)Oc1ccccc1C1CC(c2csc(C3CCN(C(=O)Cn4nc(C(F)(F)F)cc4C)CC3)n2)=NO1 (stereo not drawn) [Compound 263] | 83% | 99% | 84% | –
20 | Cc1cc(C(F)(F)F)nn1CC(=O)N1CCC(c2nc(C3=NOC(N(C)C(=O)c4ccccc4)C3)cs2)CC1 (stereo not drawn) [Compound 264] | 88% | 99% | 100% | –
21 | Cc1cc(C(F)(F)F)nn1CC(=O)N1CCC(c2nc(C3=NOC4(CC(=O)N(C)C4=O)C3)cs2)CC1 (stereo not drawn) [Compound 267] | – | – | – | Percent Disease Control, Test C [1, 4]: 100%; Percent Disease Control, Test A [2, 4]: 100%; Percent Disease Control, Test B [3, 4]: 100%
22 | CCc1ccc(-c2csc(C3CCN(C(=O)Cn4nc(C(F)(F)F)cc4C)CC3)n2)cc1 [Compound 268] | – | – | – | Percent Disease Control, Test C [1, 4]: 88%; Percent Disease Control, Test A [2, 4]: 100%; Percent Disease Control, Test B [3, 4]: 100%
23 | Cc1cc(C(F)(F)F)nn1CC(=O)N1CCC(c2nc(-c3ccc(OC(F)(F)F)cc3)cs2)CC1 [Compound 269] | – | – | – | Percent Disease Control, Test C [1, 4]: 0%; Percent Disease Control, Test A [2, 4]: 100%; Percent Disease Control, Test B [3, 4]: 100%
24 | COC(=O)c1ccc(-c2csc(C3CCN(C(=O)Cn4nc(C(F)(F)F)cc4C)CC3)n2)cc1 [Compound 270] | – | – | – | Percent Disease Control, Test C [1, 4]: 0%; Percent Disease Control, Test A [2, 4]: 99%; Percent Disease Control, Test B [3, 4]: 83%
25 | CCCc1ccc(-c2csc(C3CCN(C(=O)Cn4nc(C(F)(F)F)cc4C)CC3)n2)cc1 [Compound 271] | – | – | – | Percent Disease Control, Test C [1, 4]: 72%; Percent Disease Control, Test A [2, 4]: 100%; Percent Disease Control, Test B [3, 4]: 100%
26 | CSc1ccc(-c2csc(C3CCN(C(=O)Cn4nc(C(F)(F)F)cc4C)CC3)n2)cc1 [Compound 272] | – | – | – | Percent Disease Control, Test C [1, 4]: 100%; Percent Disease Control, Test A [2, 4]: 100%; Percent Disease Control, Test B [3, 4]: 100%
27 | Cc1cc(C(F)(F)F)nn1CC(=O)N1CCC(c2nc(-c3ccc(C(C)C)cc3)cs2)CC1 [Compound 273] | – | – | – | Percent Disease Control, Test C [1, 4]: 90%; Percent Disease Control, Test A [2, 4]: 100%; Percent Disease Control, Test B [3, 4]: 100%
28 | Cc1cc(C(F)(F)F)nn1CC(=O)N1CCC(c2nc(-c3ccc(CC(C)C)cc3)cs2)CC1 [Compound 274] | – | – | – | Percent Disease Control, Test C [1, 4]: 100%; Percent Disease Control, Test A [2, 4]: 99%; Percent Disease Control, Test B [3, 4]: 100%
29 | Cc1cc(C(F)(F)F)nn1CC(=O)N1CCC(c2nc(C3=NOC(n4c(=O)n(C)c5ccccc54)C3)cs2)CC1 (stereo not drawn) [Compound 275] | – | – | – | Percent Disease Control, Test C ([1]; ** tested at l0 ppm): 98%; Percent Disease Control, Test A ([2]; ** tested at l0 ppm): 99%; Percent Disease Control, Test B ([3]; ** tested at l0 ppm): 100%
30 | Cc1cc(C(F)(F)F)nn1CC(=O)N1CCC(c2nc(C3=NOC(CN4C(=O)c5ccccc5C4=O)C3)cs2)CC1 (stereo not drawn) [Compound 278] | 99% | 94% | 100% | –
31 | Cc1cc(C(F)(F)F)nn1CC(=O)N1CCC(c2nc(C3=NOC(N4C(=O)N(C)C(=O)C(C)(C)C4=O)C3)cs2)CC1 (stereo not drawn) [Compound 279] | 99% | 100% | 100% | –
32 | Cc1cc(C(F)(F)F)nn1CC(=O)N1CCC(c2nc(C3=NOC(n4c(=O)sc5ccc(Cl)cc54)C3)cs2)CC1 (stereo not drawn) [Compound 280] | – | – | – | Percent Disease Control, Test C ([1]; ** tested at l0 ppm): 98%; Percent Disease Control, Test A ([2]; ** tested at l0 ppm): 92%; Percent Disease Control, Test B ([3]; ** tested at l0 ppm): 100%
